From patent US7728025B2, “2-heteroaryl-substituted benzimidazole derivative” (Banyu Pharmaceutical Co., Ltd., priority 2003, dated 2010)

Molecular target: T1, recombinant human liver GK (Homo sapiens, UniProt P35557)
T1 construct: made in house; host or cells: E. coli
T1 sequence (P35557 1-466 isoform P35557-2): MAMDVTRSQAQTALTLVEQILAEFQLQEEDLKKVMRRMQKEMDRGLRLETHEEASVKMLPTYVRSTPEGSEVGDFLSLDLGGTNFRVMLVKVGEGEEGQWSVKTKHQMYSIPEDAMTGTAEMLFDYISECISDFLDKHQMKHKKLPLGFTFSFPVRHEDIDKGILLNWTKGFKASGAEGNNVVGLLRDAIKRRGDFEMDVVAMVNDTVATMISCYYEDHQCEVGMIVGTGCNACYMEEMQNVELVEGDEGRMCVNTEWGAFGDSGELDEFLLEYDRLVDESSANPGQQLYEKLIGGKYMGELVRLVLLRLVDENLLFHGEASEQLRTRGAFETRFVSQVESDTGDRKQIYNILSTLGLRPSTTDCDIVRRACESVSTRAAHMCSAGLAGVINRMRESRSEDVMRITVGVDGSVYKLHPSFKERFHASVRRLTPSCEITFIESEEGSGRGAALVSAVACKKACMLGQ
Assay: Glucokinase (GK) activation assay: Thio-NADH formation coupled with G6PDH, absorbance at 405 nm
Type: biochemical
Settings: final glucose concentration 2.5 mM, 30° C.; for Emax: OD level of DMSO control set as 100%
Source text: The glucokinase activity may be determined not by directly measuring glucose-6-phosphate but by measuring the level of Thio-NADH, which is produced when a reporter enzyme, glucose-6-phosphate dehydrogenase produces phosphogluconolactone from glucose-6-phosphate, and based on the level, the degree of glucokinase activity of the compound tested may be determined.
In this assay, used was a recombinant human liver GK, which was expressed by E. coli as a FLAG fusion protein therein and was purified by […] M2 AFFINITY GEL (Sigma).
Using a 96-well plate, the assay was carried out at 30° C. 69 μl of an assay buffer (25 mM Hepes Buffer/pH=7.2, 2 mM MgCl2, 1 mM ATP, 0.5 mM TNAD, 1 mM dithiothreitol) was put into the plate, and 1 μl of a DMSO solution of the compound or DMSO alone as a control was added thereto. Next, 20 μl of an enzyme mixture (FLAG-GK, 20 U/ml G6PDH) cooled in ice was added to it, and 10 μl of a substrate, 25 mM glucose was added to it, and the reaction was initiated (final glucose concentration=2.5 mM).
After the start of the reaction, the increase in the absorbance at 405 nm was measured for 10 minutes at intervals of 30 seconds, and the increase for the first 5 minutes was used for evaluating the compound tested. FLAG-GK was added so that the absorbance increase after 5 minutes in the presence of 1% DMSO could be from 0.05 to 1.0.
The OD level of the DMSO control was set as 100%; and the OD level of the test compound at different concentrations was determined. From the OD level at each concentration, Emax (%) and EC50 (μM) were computed and used as the index of the GK-activating potency of the compound.

Row | Emax [%] | EC50 [nM] | SMILES
1 | 768 | 2300 | CC(=O)c1ccccc1Oc1cc2nc(-c3ccccn3)[nH]c2cc1Oc1ccc(C(=O)N(C)C)cc1 [Example 26, 5-(2-Acetyl-phenoxy)-6-(4-dimethylcarbamoyl-phenoxy)-2-pyridin-2-yl-1H-benzimidazole]
2 | 832 | 1400 | COc1ccccc1Oc1cc(Oc2cccnc2)cc2[nH]c(-c3ccccn3)nc12 [Example 67, 4-(2-Methoxy-phenoxy)-2-pyridin-2-yl-6-(pyridin-3-yloxy)-1H-benzimidazole]
